Source: a melting point compilation (Tetko et al.; mined from patent text by program, amines drawn as free bases though some values may be those of a salt)

melting point | SMILES
87 to 88 °C | COc1c(Br)cc(Br)cc1CC#N
67 to 68 °C | CCOC(=O)COc1cc2cc(CC)sc2c(Cl)c1Cl
302 to 304 °C | NC(=O)c1ncn2c(-c3ccc(Cl)c(Cl)c3)ccnc12
220 °C | N#CCN1CCC(=C2c3ccccc3CCn3ccnc32)CC1
162 °C | CC(C#N)(c1ccc(Cl)c(C(F)(F)F)c1)c1ccc([N+](=O)[O-])cc1Cl (centres undefined)
192 to 193 °C | COc1ccc(Cl)c2c1C(=O)OC2=O
275 to 277 °C | Cc1nccc2[nH]c(=O)c(C#N)cc12
194 to 195 °C | CC(C)(C)C(NC(=O)c1ccc(Cl)cc1)NC(=NC#N)Nc1cccnc1 (centres undefined)
95 to 97 °C | O=C(c1ccccn1)c1csc(-c2ccccc2)n1
146 to 149 °C | CN(C)c1ccc([N+](=O)[O-])cn1
60 to 62 °C | CCOC(=O)C(C)(C)Oc1ccc(OCCn2c(=O)sc3cc(C(=NO)c4ccccc4)ccc32)cc1
155 to 170 °C | COc1ccc2c(c1)C(c1ccccc1)C(=O)NCC2 (centres undefined)
144 to 146 °C | CCc1nc(-c2cccc(C)c2)c(-c2ccnc(N)c2)s1
203 to 204 °C | Cc1nnc2c3cccc(Br)c3ccn12
240 to 241 °C | CC(CCNC1=Nc2ccc(Br)c3cccc1c23)n1ccnc1 (centres undefined)
119 to 120 °C | CN=C(ON1C(=O)CCC1=O)c1ccccc1
150 to 152 °C | COC(=O)N[C@@H](C)CNc1nccc(-c2cn(C(C)C)nc2-c2cc(Cl)cc(NS(C)(=O)=O)c2F)n1

melting point | SMILES
229 to 232 °C | O=C(O)C1CCc2c(oc3ccc([N+](=O)[O-])cc23)C1 (centres undefined)
193 to 195 °C | Cc1cc(Cl)ccc1N1C(=O)c2ccc(Cl)cc2C1=O
168 °C | CCOC(=O)c1cc(=O)c2ccc(NCc3ccccc3)c([N+](=O)[O-])c2o1
> 280 °C | Cc1c(F)c(F)cc2c(=O)c(C(=O)O)cn(-c3ccc(F)c(O)c3)c12
281 to 282 °C | Cc1ccc2c(c1)c(=O)c(-c1nnnn1C)cn2C
43 °C | COc1cc(C(C#N)O[Si](C)(C)C(C)(C)C)cc(OC)c1OC (centres undefined)
88 to 91 °C | Cc1cc(-c2c(-c3ccc(S(C)(=O)=O)cc3)cnn(CC(F)(F)F)c2=O)ccc1F
275 to 283 °C | NC(=O)c1sc2nccc(N3CCCC3)c2c1N
163 °C | CC1(C(=O)O)CCc2onc(-c3ccc(Cl)cc3)c2CC1 (centres undefined)
267 to 268 °C | Cn1cc(-c2cc3cccnc3[nH]2)c2cc(OC3(C(N)=O)CCC3)ccc21
208 to 211 °C | Clc1cc(Nc2nccc(-c3ccc(N4CCNCC4)nc3)n2)cc(Cl)c1Cl
168 to 171 °C | CCSc1ccc(-c2cncnc2)c2c1C(=O)CC(C)C2 (centres undefined)
191 °C | CNc1ccc(-c2ccnc(-c3cn(C)c(=O)n3-c3ccc(C(C)(C)C#N)cc3)c2)cn1
251 to 253 °C | COc1ccnc(CCc2nc3cc(-c4ccc(NS(=O)(=O)c5ccccc5)cc4)cnc3[nH]2)c1
162 °C | CON(C)C(=O)c1cc2c3c(c1)c(-c1cccc(Cl)c1)cc(=O)n3CC2
130 to 133 °C | CCOC(=O)COc1cccc(C(=O)Nc2ccccc2Sc2ccccc2-c2nnn[nH]2)c1
73 to 76 °C | COC(=O)c1ccc(Cl)cc1OCC#N

Second part, the compound before the results:

SMILES | melting point
CCOC(=O)c1cn(CCNC(=O)OC(C)(C)C)c(Br)c1-c1cccc(F)c1 | 108 to 110 °C
FC(F)(F)Oc1ccc(-c2ncc(Br)cn2)cc1 | 107 to 108 °C
COc1ccc(CN=Nc2c(O)c(O)c(N=NCc3ccc(OC)cc3)c3ccccc23)cc1 | 245 to 251 °C
[N-]=[N+]=NCCCC(=O)N1CCc2c(OC(CO)CO)ccc([N+](=O)[O-])c21 | 78 to 79 °C
COc1ccc(Nc2ccn(-c3ccccc3)n2)cc1 | 96 to 98 °C
CCOC(=O)Oc1cc2c(s1)CCN([C@H](C(=O)OC)c1ccccc1Cl)C2 | 42 to 44 °C
COC1(OC)CC(c2ccccc2)N(O)C(c2ccccc2)C1 (centres undefined) | 172 to 175 °C
OCCCc1cnoc1-c1ccc(Cl)c(Br)c1 | 75 to 76 °C
CN(C)C1CCC(Nc2nc3cc(Cl)c(Cl)cc3nc2-c2ccncc2)CC1 (centres undefined) | 183 to 185 °C
O=S(=O)(Br)c1cccs1 | 49 to 51 °C
O=C(O)C(CC(=O)N1CCOCC1)NS(=O)(=O)c1ccc(-c2ccc(Cl)cc2)cc1 (centres undefined) | 144 to 146 °C
N[C@@H](Cc1ccc(C(F)(F)F)cc1)[C@H](O)c1ccc(F)c(F)c1 (racemic) | 99 to 100 °C
CC(=O)NCC1CN(c2ccc(N3CCN(C(=O)COC(=O)CCN(C)C)CC3)c(F)c2)C(=O)O1 (centres undefined) | 136 to 137 °C
CC(C)(C)OC(=O)N1CCN(c2ccc(Nc3nc(N)c(C(=O)c4c(Cl)cccc4Cl)s3)cc2)CC1 | 165 to 167 °C
COc1ccc2nc(C(=O)Nc3nnn(Cc4ccc(Cl)c(Cl)c4)c3C)sc2c1 | 176 °C
CS(=O)C(c1ccc(Cl)cc1)c1ccc(Cl)cc1 (centres undefined) | 110 °C
N=C(NCc1c(F)cccc1F)NN=Cc1c(Cl)cccc1Cl | 168 to 170 °C
NC(=O)[C@@H]1[C@H]2CC[C@H](C2)[C@@H]1Nc1nc(Nc2ccc3c(c2)CCC(NCC(F)(F)F)CC3)ncc1Cl (some centres undefined) | 218 °C
CCCCCCCCCCCCCCc1ccc(C(=O)OC)cc1 | 28 to 29 °C
CC(CN1CCOCC1)C(=O)c1ccc(C(C)(C)C)cc1 (centres undefined) | 71 to 73 °C
CN(C)C(=N)Nc1ccccc1-c1ccc(Cl)cc1 | 150 to 152 °C
CCn1ncc2nc(C(=O)Nc3nccs3)c(-c3ccccc3)nc21 | 194 to 196 °C

SMILES | melting point
CCCCOc1c(CNC(=O)OC(C)(C)C)n(CC(C)(C)C)c(=O)c2cc(F)ccc12 | 149 to 150 °C
CC1CCCN1CCCN1CCN(CCCN2CCCC2C)C1=C(C#N)C#N (centres undefined) | 89 to 93 °C
CC(=O)OC1CSC(Oc2cncc(-c3cncnc3)c2)C(OC(C)=O)C1OC(C)=O (centres undefined) | 213 to 217 °C
CC=COCCC[C@H]1CC[C@H](c2cccc(F)c2F)CC1 | 35.5 to 36.9 °C
CC(=O)Nc1ccc(OC(=O)C2CSC(=O)N2)cc1 (centres undefined) | 204 to 205 °C
CCCCCCCCCCCCCCCC1CCCC(=O)C1 (centres undefined) | 41 °C
COc1cc2c(cc1OC)CN(CC(O)c1ccc([N+](=O)[O-])cc1)CC2 (centres undefined) | 130 °C
CC(C)n1nc(-c2c(-c3ccccc3)nn3ccc(OCc4ccccn4)cc23)ccc1=O | 150 to 151 °C
CCCCCC(C)C(C)c1cc(O)c2c(c1)OC(C)(C)C1=C2CN(CC(=O)NC(=O)Nc2ccccc2)CC1 (centres undefined) | 159 to 161 °C
COCOc1cc(OC)c(OC)cc1-c1c(C(=O)OC)[nH]c(C(=O)OC)c1-c1ccc(OC)c(OC)c1 | 162 to 163 °C
O=C(NC(=O)N(Sc1ccccc1[N+](=O)[O-])c1ccc(Cl)cc1)c1c(F)cccc1F | 176 to 178 °C
O=C(c1ccccc1)C(O)C1OC(n2cc(F)c(=O)[nH]c2=O)C(O)(C(=O)c2ccccc2)C1(O)C(=O)c1ccccc1 (centres undefined) | 210 to 214 °C
CCOC(=O)C(Cl)=Cc1cc(NC(=O)C2=C(C(N)=O)CCCC2)ccc1Cl | 185 to 186 °C
CCCCCCCCCCCCCCCCCC(=O)N[C@@H](C)C(=O)OC | 84 °C
COc1ccccc1CNc1ccc2cc(Nc3ccccn3)ccc2n1 | 134 °C
Cc1ccc(Cn2c3c(c4cc(OCc5ccccc5)ccc42)C(=O)C(=O)OC3)cc1 | 206 to 207 °C
O=S(=O)(Nc1ccccc1)c1cccc(Br)c1 | 98 to 100 °C
O[C@@H](CNCC1CCN(CCC(F)(F)F)CC1)COc1ccc(Br)c2[nH]c3ccccc3c12 | 79 °C
CC(C)(C)OC(=O)N1CCC(NC(=O)c2ccc(-n3cccn3)cc2)CC1 | 170 to 171 °C
CC1(C(=O)NCc2cccs2)CC1 | 70 to 71 °C
Cc1nc2c(N)nc3ccc(OCc4ccccc4)cc3c2n1CCCCNC(=O)c1ccccc1 | 244 to 245 °C
CNC=C(C(=O)C=Cc1ccc(Cl)cc1)C(=O)OC | 114 to 116 °C

SMILES | melting point
CCN(CC)CCNC(=O)c1ccc(NC(=O)c2ccc3c(c2)OCO3)cc1OC | 131 °C
CCOC(=O)c1ccn(-c2ccc(OCC)cc2)n1 | 88 to 90 °C
OCC1OC(c2n[nH]c3cncnc23)C(O)C1O (centres undefined) | 227 to 228 °C
COc1nc(C(=O)N(C)Cc2cc(C(F)(F)F)cc(C(F)(F)F)c2)c(-c2ccccc2)c2ccccc12 | 129 to 130 °C
CCCCSc1nsnc1OC1CCNC1 (centres undefined) | 99 to 100 °C
Brc1cncc(C2CCCCN2)c1 (centres undefined) | 97 to 97.5 °C
ON=c1cc(-c2cc3cccn3cn2)oc2ccc(OCCOc3ccncc3)cc12 | 198 to 200 °C
NC1=NN(c2cccc(Cl)n2)C(c2ccc(Cl)cc2)C1 (centres undefined) | 157 to 158 °C
NCC1CCN(c2nc3ccccc3[nH]2)CC1 | 136 to 138 °C
C[C@@H](N(CC(=O)O)C(=O)c1ccc(C(F)(F)F)cc1)[C@](O)(Cn1cncn1)c1ccc(Cl)cc1Cl (relative stereo) | 140 to 142 °C
FC(F)(F)c1nc(-c2ccccc2)c(-c2ccccc2)c(N2CCN(c3ccccn3)CC2)n1 | 165 to 167 °C
COc1ccc(-n2nc(OC(C)C)cc2-c2ccc(OCCO)cc2)cn1 | 74 to 75 °C
O=C1[C@H](O)[C@@H](O)C(=O)N1Cc1ccccc1 | 100 °C
CCc1cc(NC(C)=O)cc(CC)n1 | 74 to 78 °C
O=C1C2=C(CCCC2)C(=O)N1c1cc(O)ccc1F | 165 °C
CCN(CC)c1ccc(NC(=O)N(C[C@H]2CC[C@H](CN(C(=O)Nc3ccc(N(CC)CC)cc3)C3CCCCC3)CC2)C2CCCCC2)cc1 | 212 to 217 °C
COc1ccc(N)c(OC)c1-c1ccc(C[C@H](NC(=O)c2c(Cl)cccc2Cl)C(=O)O)cc1 | 231 to 232 °C
Nc1[nH]c(=O)c(C(=O)CCC2CCN(CC3CCCCC3)CC2)cc1Cl | 164 °C
CS(=O)(=O)c1ccc(-c2nc(C(F)(F)F)nc(NN)c2-c2ccc(S(=O)(=O)NN)cc2)cc1 | 203 to 206 °C
COC(=O)[C@H](CC(C)C)NC(=O)[C@@H](CCSC)NC(=O)OC(C)(C)C | 61 to 64 °C
O=C1N[C@H](Cc2ccc(CC(F)(F)C(F)(F)F)cc2)[C@H](c2cccc(Cl)c2)O1 (racemic) | 137 to 138 °C
